Test results: US12263140B1, “Methods of reducing the production of greenhouse gases from animals” (AGRICULTURAL SCIENCES LIMITED, priority 2023, dated 2025)

Assays:
cow rumen fluid [1] = test: SIFT-MS analysis of gas from grass fermentations by cow rumen fluid; format: cell-based
Source text: A SIFT-MS analyser was further used to confirm the above noted effects in terms of reductions in methane. A SIFT-MS device (see https://syft.com/sift-ms-technology/) is an advanced method for analysing mixtures of smaller volatile organic compounds.

[2] = test system: rumen fluid from live cows; test: Fermentation of dried grass with rumen fluid from fistulated cows that drank dilute vitamin K1 solution; format: in vivo, cow; details: drinking water, 100 ml of tincture to 20 litres of water
Source text: The collected rumen fluid was then fermented with dried grass in the fermenter described in Example 1 and FIG. 1.

[3] = test system: rumen regions AD, PD, PV, AV; test: Natural fermentation and pH of fluid from different rumen regions; format: cell-based, cow; details: FIG. 13
Source text: The different rumen regions were sampled by collecting the rumen of a slaughtered animal and making a cut with a sterile knife in a particular region and then palpating fluid samples using gloved hands from the cut. Cuts were made in the anterior dorsal region of the rumen (AD), the posterior region (PD), the posterior ventral (PV) and the anterior ventral (AV).
FIG. 13 is a graph showing the results of natural fermentation (without the addition of substrate other than the material eaten by the cow before death), according to one or more embodiments.
The pH difference between experimental, which were dosed with vitamin K1, and the controls, which were not dosed with vitamin K1, was greatest at position AD. The average pH in the control samples was 6.51 and in the experimental samples, the average pH was 6.34.

pig faeces = test: Fermentation of diluted pig faeces; format: cell-based; details: 1% steep fluid
Method: Fresh pig faeces samples were mixed with an equal volume of distilled water.
Six 50 ml fermentation tubes were used in the fermentation experiment.
The controls were […] fermentation tubes filled to the top with diluted pig faeces.
The fermentation tubes were gently agitated in a water bath held in the dark at 36° C.

cow pats (faeces) = test: Fermentation of cow pats from cows drenched with vitamin K1; format: in vivo; details: FIG. 9; no vitamin K1 added to the cow pats
Method: The cows in both fields were of the same breed and provenance.
The resulting cow pat samples were fermented using the apparatus described in Example 1 and FIG. 1 and gas produced collected and tested. Vitamin K1 was not added to the cow pats.
An qualitative test was also completed where the smell of the gases in the fermentation chambers were assessed at the end of fermentation.

methanogens = test: Fermentation of methyl alcohol in rumen fluid; format: cell-based, cow; details: MeOH added to rumen fluid with or without vitamin K1
Method: The MeOH was added in equal volumes to tubes containing rumen fluid with (E) or without (C) the addition of vitamin K1. The results are shown as symbols on the Y-axis in FIG. 13, according to one or more embodiments.

cow rumen fluid [4] = test: Fermentation of cow rumen fluid and dried grass (hay) in adjustable pressure fermenter; format: cell-based; set-up: reduction of total gas volume compared to controls, average / reduction of total gas volume compared to controls, minimum / methane emission reduction / methane emission reduction, peak / CO2 volume produced by the fermentation, reduction compared to control samples: concentration or dose not given beside the values; details: for inhibition of vitamin K1 effects on reducing gas production by grass: Example 2
Source text: The aerial parts of the plants were harvested and allowed to dry for a number of days, the number depend on the weather. When air dry the material was steeped in 30% ethanol for one month or more (up to 3 months). It was important to keep the steep in the dark and to have the steep vessels filled and cover tightly to prevent the entry of air. […] Samples of rumen fluid were collected from either slaughtered cows immediately after slaughter. Samples of rumen fluid were collected from the rumen of these cows by cutting the rumen wall using a sterilised knife and allowing the fluid that exuded from the cut to be collected in a sterilised kidney bowl and held in a Dewar flask at body temperature. The rumen fluid was used within one hour of slaughter. It was passed through cheese cloth or similar to filter out the liquid portion for use in this and further trials. […] The rumen fluid was kept in the dark at a temperature of 36° C. at all times during transport and storage.
The collected rumen fluid samples were mixed with dried grass (hay) to form control samples. […] The prepared samples were then added to a trial fermenter and fermented over time to determine the total amount of gas produced during the fermentation time period along with the CO2 produced and the methane (CH4) production during the trial time period. The tubes were inspected periodically until fermentation stopped. The samples were analysed using gas chromatography (GC) with a permanent gas analysis column, in the order they were made.
The trial fermenter used is an adjustable pressure fermenter system consisting of two arms (one closed and one open) of a manometric setup fastened to a backplate (not shown).
Fermentation tube sizes varied from 50 ml to 250 ml. The closed arm was fixed to the supports and was closed at its top end by means of a removable stopper that has a small rubber or synthetic material septum embedded in the centre.
Samples may be taken from the fermenter using a gas tight microlitre syringe. In use, according to one or more embodiments, the needle of the syringe is able to be inserted through the septum to take samples of fermenting fluid or gas for analysis by gas chromatography.
The arms were free to move up or down so that the pressure in the closed arm could be brought to atmospheric pressure, which occurred when the fluid levels in both arms were at equal heights.
For all early trials lab scale (50 ml) fermenters were used. Up to 20 fermenters could be used at the same time thus giving more reliable replications for statistical analysis. The tubes were held in a water bath held at a temperature of 36° C. with light excluded by a light-proof cover on the bath. The tubes were gently agitated during the fermentation.
The synthetic material was produced by the oxidation of 2-methylnaphthalene to 2-methyl-1,4-naphthoquinone with chromium trioxide in sulphuric and acetic acids. Trials were completed using the above trial fermenter and method using rumen fluid as described in Example 1.
To investigate this, fermentations were completed using the apparatus described in Example 1 and FIG. 1 using samples of fresh cow rumen fluid and dried grass, according to one or more embodiments.

[5] = test system: rumen fluid from live fistulated cows; test: Fermentation of dried grass with rumen fluid from treated live fistulated cows, 12 hours (Example 11); format: in vivo, cow; details: 36° C., dark, 1 g dried grass
Method: In this trial, samples of rumen fluid from live fistulated cows were collected, passed through butter muslin (cheese cloth) and the fluid transferred to pre-warmed Thermos™ flasks.
Six fermentation vessels had 1 g of dried grass added to each.
Three vessels, the Experimentals, were filled with the rumen fluid from the treated cows. The other three vessels, the controls, were filled with rumen fluid from the untreated cows. All vessels were gently incubated at 36° C. in the dark for 12 hours.

[6] = EFSA report 2013; cited from earlier work

Compound: CC1=C(C/C=C(\C)CCC[C@H](C)CCC[C@H](C)CCCC(C)C)C(=O)c2ccccc2C1=O [vitamin K1]
- reduction in methane compared with controls (cow rumen fluid [1]): 83.6%
- reduction in total volume compared with controls (cow rumen fluid [1]): 56.8%
- reduction in carbon dioxide production [2]: approximately 29%
- reduction in methane production [2]: approximately 20%
- reduction in total gas production [2]: approximately 25%
- rumen region of greatest inhibition [3]: maximum inhibitory effect in the PV region
- rate of methane production in rumen regions ([3]; natural fermentation without added substrate): lower the rate of methane production
- emission of methane gas from faeces (pig faeces): completely inhibited
- vitamin K1 effect on gas production carried through to faeces (cow pats (faeces)): still active in the faeces
- fermentation of MeOH by methanogens (methanogens): strongly inhibits
- CO2 volume produced by the fermentation, reduction compared to control samples (cow rumen fluid [4]): 83.4%
- inhibition of vitamin K1 effects on reducing gas production by grass (cow rumen fluid [4]; grass fermented immediately after harvest): total
- inhibition of vitamin K1 effects on reducing gas production by grass (cow rumen fluid [4]; older (3+ day old) grass): only a small inhibitory effect
- gas volume produced (cow rumen fluid [4]; Example 9, Trial 4, vitamin K1 and sulphide both added): consistent with and even slightly higher than control
- methane emission reduction (cow rumen fluid [4]; further trials): 66.7%
- reduction of total gas volume compared to controls, average (cow rumen fluid [4]; further trials): 80.2%
- reduction of total gas volume compared to controls, maximum (cow rumen fluid [4]; further trials): 94.5%
- reduction of total gas volume compared to controls, minimum (cow rumen fluid [4]; further trials): 75.9%
- methane emission reduction, peak (cow rumen fluid [4]; further trials, under specific conditions): 91%
- CO2, of controls [5]: 39.35%
- methane formation, of controls [5]: 25.6%
- total gas volume, of controls [5]: 25.6%
- risk to the environment [6]: not a risk to the environment
